Results on one compound are retold here after publication PMC2797370 (2009).

The target of the assay is T1, prostaglandin endoperoxide synthase-2 (PGHS-2) (Mus musculus, UniProt Q05769).
T1 sequence (Q05769 18-604): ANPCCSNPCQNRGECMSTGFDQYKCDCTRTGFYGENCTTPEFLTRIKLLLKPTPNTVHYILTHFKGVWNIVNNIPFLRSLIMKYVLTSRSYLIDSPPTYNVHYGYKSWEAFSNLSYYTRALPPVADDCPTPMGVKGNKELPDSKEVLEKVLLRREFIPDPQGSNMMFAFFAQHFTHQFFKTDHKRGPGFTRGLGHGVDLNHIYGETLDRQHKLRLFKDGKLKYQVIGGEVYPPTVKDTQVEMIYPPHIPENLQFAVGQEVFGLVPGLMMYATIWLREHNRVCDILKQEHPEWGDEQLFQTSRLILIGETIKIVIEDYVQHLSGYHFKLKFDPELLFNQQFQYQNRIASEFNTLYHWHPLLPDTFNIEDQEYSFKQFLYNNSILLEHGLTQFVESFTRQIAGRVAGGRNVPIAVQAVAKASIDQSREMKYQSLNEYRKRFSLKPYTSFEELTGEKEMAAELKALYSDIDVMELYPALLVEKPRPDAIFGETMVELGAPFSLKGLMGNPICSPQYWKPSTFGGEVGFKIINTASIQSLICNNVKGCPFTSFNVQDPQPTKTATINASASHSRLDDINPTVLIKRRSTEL
The experiment in a line: oxygen uptake assay of purified enzyme. The assay is classed as biochemical.

`CCCCC/C=C\C/C=C\C/C=C\C/C=C\CCCC(=O)Nc1cccc(O)c1` [3-HPAA, N-(3-Hydroxyphenyl)eicosa-5,8,11,14-tetraenamide]: the IC50 (usually the midpoint of a concentration-inhibition curve) was found to be 1600 nM.
